Ki and Ratio Ki data for seven compounds are collected here from ChEMBL document CHEMBL3286394, “Synthesis and pharmacological characterization of new neuronal nicotinic acetylcholine receptor ligands derived from Sazetidine-A” (Bioorg Med Chem Lett, 2014).

Experiment [1] deals with Neuronal acetylcholine receptor subunit alpha-7 (Rattus norvegicus, UniProt Q05941). Description: Displacement of [3H]epibatadine from rat alpha7 nAChR expressed in HEK293 cells by scintillation counting analysis. It is filed as cell-based. In general terms: Displacement assays read how much labelled ligand stays bound in the presence of the test substance.
Chain of Neuronal acetylcholine receptor subunit alpha-7 (Q05941 whole entry): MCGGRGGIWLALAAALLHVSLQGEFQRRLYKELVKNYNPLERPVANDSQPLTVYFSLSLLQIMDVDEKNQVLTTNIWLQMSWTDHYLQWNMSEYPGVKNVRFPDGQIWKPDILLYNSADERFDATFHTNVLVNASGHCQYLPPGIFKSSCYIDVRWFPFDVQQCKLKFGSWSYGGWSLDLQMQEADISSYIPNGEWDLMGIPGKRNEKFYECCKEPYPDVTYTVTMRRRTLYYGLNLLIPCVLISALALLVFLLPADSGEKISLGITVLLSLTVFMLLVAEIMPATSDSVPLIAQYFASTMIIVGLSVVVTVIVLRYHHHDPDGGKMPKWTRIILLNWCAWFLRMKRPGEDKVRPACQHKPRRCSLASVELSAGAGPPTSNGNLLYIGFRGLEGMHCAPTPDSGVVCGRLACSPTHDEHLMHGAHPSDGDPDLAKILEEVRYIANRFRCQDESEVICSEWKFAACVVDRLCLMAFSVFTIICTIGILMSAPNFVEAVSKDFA
For experiment [2], the target named is Neuronal acetylcholine receptor; alpha4/beta2 (Rattus norvegicus, UniProt P09483+P12390). Description: Displacement of [3H]epibatadine from rat alpha4beta2 nAChR expressed in HEK293 cells by scintillation counting analysis. It is filed as cell-based.
Chain of Neuronal acetylcholine receptor; alpha4/beta2 (P09483 whole entry): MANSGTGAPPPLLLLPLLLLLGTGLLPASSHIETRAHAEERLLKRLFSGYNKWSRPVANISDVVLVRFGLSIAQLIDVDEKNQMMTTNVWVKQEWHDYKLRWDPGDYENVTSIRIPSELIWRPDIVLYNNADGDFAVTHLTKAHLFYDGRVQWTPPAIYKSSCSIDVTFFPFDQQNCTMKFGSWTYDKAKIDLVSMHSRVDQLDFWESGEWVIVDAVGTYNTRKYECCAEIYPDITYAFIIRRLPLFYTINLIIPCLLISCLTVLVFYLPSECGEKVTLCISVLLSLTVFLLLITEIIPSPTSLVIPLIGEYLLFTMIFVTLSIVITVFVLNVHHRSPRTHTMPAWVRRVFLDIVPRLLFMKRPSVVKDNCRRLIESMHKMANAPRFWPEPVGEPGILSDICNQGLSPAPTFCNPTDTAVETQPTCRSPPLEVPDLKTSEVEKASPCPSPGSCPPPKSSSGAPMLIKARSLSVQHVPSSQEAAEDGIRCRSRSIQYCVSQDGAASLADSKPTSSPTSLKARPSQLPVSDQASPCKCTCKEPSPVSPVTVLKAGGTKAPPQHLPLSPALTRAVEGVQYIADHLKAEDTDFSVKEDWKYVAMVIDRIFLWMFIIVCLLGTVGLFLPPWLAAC
Chain of Neuronal acetylcholine receptor; alpha4/beta2 (P12390 whole entry): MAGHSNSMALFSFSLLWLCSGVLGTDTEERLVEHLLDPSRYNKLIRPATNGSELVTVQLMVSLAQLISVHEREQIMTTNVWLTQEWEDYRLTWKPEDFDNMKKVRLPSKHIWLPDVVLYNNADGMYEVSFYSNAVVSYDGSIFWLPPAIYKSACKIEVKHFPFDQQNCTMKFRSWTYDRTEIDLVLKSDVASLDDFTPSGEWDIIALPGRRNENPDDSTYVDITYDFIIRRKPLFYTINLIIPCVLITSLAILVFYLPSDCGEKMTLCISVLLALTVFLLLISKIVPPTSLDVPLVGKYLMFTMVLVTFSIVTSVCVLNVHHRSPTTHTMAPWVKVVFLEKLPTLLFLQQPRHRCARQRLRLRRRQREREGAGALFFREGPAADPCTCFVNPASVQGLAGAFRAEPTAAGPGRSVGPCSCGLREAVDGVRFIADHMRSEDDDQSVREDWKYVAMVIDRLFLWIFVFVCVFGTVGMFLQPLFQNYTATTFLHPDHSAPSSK
The species entered for experiment [3] is Rattus norvegicus. Kind of experiment: Selectivity ratio of Ki for rat alpha3beta4 nAChR to Ki for rat alpha4beta2 nAChR.
A short description of experiment [4]: Displacement of [3H]epibatadine from rat forebrain nAChR expressed in HEK293 cells by scintillation counting analysis. In kind it is cell-based.
In experiment [5] the target is Neuronal acetylcholine receptor; alpha3/beta4 (Rattus norvegicus, UniProt P04757+P12392). Kind of experiment: Displacement of [3H]epibatadine from rat alpha3beta4 nAChR expressed in HEK293 cells by scintillation counting analysis. It is filed as cell-based.
Chain of Neuronal acetylcholine receptor; alpha3/beta4 (P04757 whole entry): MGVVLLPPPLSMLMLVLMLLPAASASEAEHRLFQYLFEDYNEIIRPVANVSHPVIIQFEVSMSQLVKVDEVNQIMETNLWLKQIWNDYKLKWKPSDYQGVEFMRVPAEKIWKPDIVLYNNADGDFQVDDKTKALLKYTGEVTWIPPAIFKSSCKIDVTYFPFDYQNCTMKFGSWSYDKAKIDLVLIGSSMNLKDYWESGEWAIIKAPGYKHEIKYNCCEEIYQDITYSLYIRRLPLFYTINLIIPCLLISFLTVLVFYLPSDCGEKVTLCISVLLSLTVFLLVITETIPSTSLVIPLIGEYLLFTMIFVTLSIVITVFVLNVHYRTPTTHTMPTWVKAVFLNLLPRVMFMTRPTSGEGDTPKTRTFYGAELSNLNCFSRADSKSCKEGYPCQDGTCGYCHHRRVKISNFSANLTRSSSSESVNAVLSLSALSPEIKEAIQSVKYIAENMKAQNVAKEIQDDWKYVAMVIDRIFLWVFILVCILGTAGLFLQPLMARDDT
Chain of Neuronal acetylcholine receptor; alpha3/beta4 (P12392 whole entry): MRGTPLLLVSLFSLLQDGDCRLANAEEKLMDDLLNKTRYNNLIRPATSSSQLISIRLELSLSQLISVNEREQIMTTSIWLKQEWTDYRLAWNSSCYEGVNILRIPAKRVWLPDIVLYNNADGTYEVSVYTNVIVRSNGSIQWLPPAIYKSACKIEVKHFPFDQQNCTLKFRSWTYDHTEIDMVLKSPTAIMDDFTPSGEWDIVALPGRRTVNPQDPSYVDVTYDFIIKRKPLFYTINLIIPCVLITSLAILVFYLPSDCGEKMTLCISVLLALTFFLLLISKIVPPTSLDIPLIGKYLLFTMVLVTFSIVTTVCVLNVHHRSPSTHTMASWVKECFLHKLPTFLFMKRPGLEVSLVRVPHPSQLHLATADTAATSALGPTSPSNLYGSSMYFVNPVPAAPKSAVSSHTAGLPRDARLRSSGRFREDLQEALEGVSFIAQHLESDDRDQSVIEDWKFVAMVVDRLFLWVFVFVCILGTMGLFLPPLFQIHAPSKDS

What is called Ki is a measure of affinity in units of concentration, obtained from inhibition or displacement. With `CCCCC#Cc1cncc(OC[C@H]2CCN2)c1`, the Ki in experiment [1] amounted to 13000 nM; in experiment [2], 0.5 nM; in experiment [4], 0.92 nM; in experiment [5] it was 5200 nM. Also, the Ratio Ki in experiment [3] was found to be 10000.

As to `CCCCC#Cc1cncc(OC[C@@H]2CCN2)c1`, the Ki turned out to be 1900 nM in experiment [1], 0.1 nM in experiment [2], 0.29 nM in experiment [4] and 1700 nM in experiment [5]. The Ratio Ki in experiment [3] amounted to 17000.

Turning to `OCCCCc1cn(-c2cncc(OC[C@@H]3CCN3)c2)nn1`, the Ki in experiment [1] was found to be 100000 nM; in experiment [2], 1.3 nM; in experiment [4], 8 nM; in experiment [5], 77000 nM. The Ratio Ki in experiment [3] is 59000.

For the compound `c1ncc(-c2nnn3c2CCCC3)cc1OC[C@@H]1CCN1`, the Ki in experiment [1] is 51000 nM; in experiment [2], 10 nM; in experiment [4], 48 nM; in experiment [5], 64000 nM. The Ratio Ki in experiment [3] was determined as 6200.

For `CCCCC#Cc1cncc(OC[C@H]2CCCN2)c1`, the Ki in experiment [1] is 9100 nM; in experiment [2], 0.49 nM; in experiment [4], 7.7 nM; in experiment [5], 12000 nM. Further, in experiment [3], the Ratio Ki turned out to be 24000.

Turning to `CCCCC#Cc1cncc(OC[C@@H]2CCCN2)c1`, the Ki in experiment [1] is 35000 nM; in experiment [2], 1.2 nM; in experiment [4], 5.8 nM; in experiment [5], 18000 nM. Further, the Ratio Ki in experiment [3] stood at 15000.

As for `[N-]=[N+]=NCCCCC#Cc1cncc(OC[C@@H]2CCN2)c1`, the Ki came to 2700 nM in experiment [1], 0.086 nM in experiment [2], 0.36 nM in experiment [4] and 3400 nM in experiment [5]. Besides, the Ratio Ki in experiment [3] was determined as 40000.
